Key:
[1] = system: human large intestine cancer cell line (HCT-116); assay: Human large intestine cancer (HCT-116) cell growth inhibition test; format: cell-based; conditions: 72 h, HCT-116, culture for 3 days, sulforhodamine B absorbance
Description: Human Large Intestine Cancer (HCT-116) Cell Growth Inhibition Test
The measurement of a human large intestine cancer cell growth inhibitory effect was carried out by modifying the method of Simak et al. (Cancer Research, 69, 6208 (2009)).
A human large intestine cancer cell line (HCT-116) (manufactured by DS Pharma Biomedical Co., Ltd., Cat. No. EC91091005) was cultured in McCoy's 5a (manufactured by GIBCO/Thermo Fisher Scientific, Inc., REF. 16600-082) medium containing 10% FBS (manufactured by GIBCO/Thermo Fisher Scientific, Inc., REF. 10082-147) and 1% penicillin/streptomycin/amphotericin B (manufactured by GIBCO/Thermo Fisher Scientific, Inc., REF. 15240-096) and inoculated at 1.0×10^3 cells/well in a 96-well plate (manufactured by Corning Inc., REF. 353072). After overnight culture in a carbon dioxide incubator, it was replaced with a fresh McCoy's 5a medium containing 10% FBS on the next day, and a test compound dissolved in DMSO (manufactured by Wako Pure Chemical Industries, Ltd., Code No. 043-07216) (final DMSO concentration: 0.1%) was added and left standing in a carbon dioxide incubator. After culturing for 3 days, the absorbance of each well was measured by using In Vitro Toxicology Assay Kit Sulforhodamine B based (manufactured by Sigma-Aldrich Co. LLC., Pcode 1001910706).
The rate of inhibition of cell growth at each concentration was calculated from the test compound concentration and the absorbance of sulforhodamine B, and the concentration of the test compound necessary for inhibiting 50% of cell growth (IC50 value) was calculated by using EXSUS (version 8.0.0 or version 8.0.1, manufactured by CAC Exicare Corp.).

[2] = target: T1, CDK7 (Homo sapiens, UniProt P50613); assay: CDK7 enzyme inhibition test; format: biochemical; conditions: Ki=IC50/(1+S/Km); 33P bound to MBP, [γ-33P]ATP, 30° C. for 20 minutes; read-out: Ki value of CDK7 inhibitory activity
T1 construct: purchased Carna Biosciences, Inc. 04-108
Description: CDK7 Enzyme Inhibition Test
The preparation of a buffer solution was performed by mixing a N-2-hydroxyethylpiperazine-N′-2-ethanesulfonic acid buffer solution (HEPES buffer solution) (pH 7.4), dithiothreitol (DTT), Triton X-100, and magnesium chloride (MgCl2). A 500 μM [γ-^33P]ATP solution was used by diluting a 10 mM ATP solution and a commercially available [γ-^33P]ATP solution (manufactured by PerkinElmer, Inc., Code No. NEG-302H) with the buffer solution. A CDK7 solution was used by diluting commercially available CDK7 (manufactured by Carna Biosciences, Inc., Catalog No. 04-108) with the buffer solution. A substrate solution was used by diluting myelin basic protein (MBP) with the buffer solution. As for the preparation of a reaction solution, the buffer solution, the 500 μM [γ-^33P]ATP solution, the CDK7 solution, and the substrate solution were mixed at 4° C. to obtain a reaction solution.
CDK7 enzyme reaction was performed by adding 5 μL of a test compound solution prepared with 10% dimethyl sulfoxide (DMSO)/90% injectable distilled water, and 45 μL of the reaction solution to a 1.5 mL microtube at 4° C. and reacting in the microtube at 30° C. for 20 minutes in a water bath incubator. After the reaction, a 10% aqueous trichloroacetic acid (TCA) solution was added to each microtube while cooled to 4° C., and mixed to terminate the reaction. The resultant was left standing at 4° C. for 10 minutes and then centrifuged in a centrifuge, and the supernatant was discarded. Next, a 2% aqueous TCA solution was added, mixed, and then centrifuged in a centrifuge, and the supernatant was discarded. This washing operation was performed twice. After the washing, precipitates were dissolved in a 1 N aqueous sodium hydroxide (NaOH) solution, and the energy quantity (radioactivity) of the reaction product was measured with a liquid scintillation counter.
The calculation of the inhibitory activity of the test compound against CDK7 was performed as a test compound concentration inhibiting 50% of the amount of ^33P bound to MBP (IC50 value) by using EXSUS (version 8.0.0 or version 8.0.1, manufactured by CAC Exicare Corp.).
(§1) The calculation of a Ki value was performed according to the following calculation expression. S means the concentration of ATP contained in the reaction solution, and Km means a Michaelis-Menten constant. Ki=IC50/(1+S/Km)

[3] = target: T2, CDK2 (Homo sapiens, UniProt P24941); assay: CDK2 enzyme inhibition test; format: biochemical; conditions: Ki=IC50/(1+S/Km); 33P bound to MBP, [γ-33P]ATP, 30° C. for 20 minutes; read-out: Ki value of CDK2 inhibitory activity
T2 construct: purchased Invitrogen Corp. PV3267
Description: CDK2 Enzyme Inhibition Test
The preparation of a buffer solution was performed by mixing a HEPES buffer solution (pH 7.4), DTT, Triton X-100, and MgCl2. A 500 μM [γ-^33P]ATP solution was used by diluting a 10 mM ATP solution and a commercially available [γ-^33P]ATP solution (manufactured by PerkinElmer, Inc., Code No. NEG-302H) with the buffer solution. A CDK2 solution was used by diluting commercially available CDK2 (manufactured by Invitrogen Corp., Catalog No. PV3267) with the buffer solution. A substrate solution was used by diluting MBP with the buffer solution. As for the preparation of a reaction solution, the buffer solution, the 500 μM [γ-^33P]ATP solution, the CDK2 solution, and the substrate solution were mixed at 4° C. to obtain a reaction solution.
CDK2 enzyme reaction was performed by adding 5 μL of a test compound solution prepared with 10% DMSO/90% injectable distilled water, and 45 μL of the reaction solution in a 1.5 mL microtube at 4° C. and reacting in the microtube at 30° C. for 20 minutes in a water bath incubator. After the reaction, a 10% aqueous TCA solution was added to each microtube while cooled to 4° C., and mixed to terminate the reaction. The resultant was left standing at 4° C. for 10 minutes and then centrifuged in a centrifuge, and the supernatant was discarded. Next, a 2% aqueous TCA solution was added, mixed thereto, and then centrifuged in a centrifuge, and the supernatant was discarded. This washing operation was performed twice. After the washing, precipitates were dissolved in a 1 N aqueous NaOH solution, and the radioactivity was measured with a liquid scintillation counter.
The calculation of the inhibitory activity of the test compound against CDK2 was performed as a test compound concentration inhibiting 50% of the amount of ^33P bound to MBP (IC50 value) by using EXSUS (version 8.0.0 or version 8.0.1, manufactured by CAC Exicare Corp.).
as §1

T1 sequence (P50613 whole entry): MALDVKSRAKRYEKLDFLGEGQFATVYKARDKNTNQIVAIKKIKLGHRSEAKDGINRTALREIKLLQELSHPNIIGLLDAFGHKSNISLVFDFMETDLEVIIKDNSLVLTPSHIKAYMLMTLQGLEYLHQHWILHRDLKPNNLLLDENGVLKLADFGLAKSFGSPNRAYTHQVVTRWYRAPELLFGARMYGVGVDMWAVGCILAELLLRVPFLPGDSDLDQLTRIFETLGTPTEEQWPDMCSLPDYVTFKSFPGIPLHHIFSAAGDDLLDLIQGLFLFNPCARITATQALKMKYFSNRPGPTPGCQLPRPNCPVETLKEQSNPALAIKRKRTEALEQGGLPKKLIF
T1 sequence (P51946 whole entry partner): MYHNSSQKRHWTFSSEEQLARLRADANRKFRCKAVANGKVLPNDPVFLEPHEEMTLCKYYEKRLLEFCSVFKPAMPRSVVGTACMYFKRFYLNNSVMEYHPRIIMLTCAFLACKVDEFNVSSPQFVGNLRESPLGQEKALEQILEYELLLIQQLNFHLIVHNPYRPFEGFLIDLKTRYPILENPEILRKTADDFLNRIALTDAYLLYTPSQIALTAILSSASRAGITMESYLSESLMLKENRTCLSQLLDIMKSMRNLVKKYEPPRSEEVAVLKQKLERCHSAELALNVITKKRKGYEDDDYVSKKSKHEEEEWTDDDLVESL
T1 sequence (P51948 whole entry partner): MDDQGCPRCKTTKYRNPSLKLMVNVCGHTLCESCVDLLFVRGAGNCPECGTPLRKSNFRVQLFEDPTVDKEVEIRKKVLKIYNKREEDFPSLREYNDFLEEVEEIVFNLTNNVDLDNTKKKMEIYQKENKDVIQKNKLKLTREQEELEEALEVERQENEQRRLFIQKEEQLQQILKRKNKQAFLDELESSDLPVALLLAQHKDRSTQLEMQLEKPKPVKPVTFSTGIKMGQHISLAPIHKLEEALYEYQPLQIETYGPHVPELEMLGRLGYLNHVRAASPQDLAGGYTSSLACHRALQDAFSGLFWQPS

Row | SMILES | IC50 [1] | Ki [2] | Ki [3]
1 | COC(C(=O)N1Cc2c(NC(=O)C3([Si](C)(C)C)CCC3)n[nH]c2C1(C)C)c1ccc(F)cc1 (stereo not shown) [IV-1427, N-{5-[2-(4-Fluorophenyl)-2-methoxyacetyl]-6,6-dimethyl-1,4,5,6-tetrahydropyrrolo[3,4-c]pyrazol-3-yl}-1-(trimethylsilyl)cyclobutanecarboxamide] | ≤ 0.5 µM | ≤ 0.05 µM | –
2 | CC(Oc1cccnc1)C(=O)N1Cc2c(NC(=O)C3([Si](C)(C)C)CCC3)n[nH]c2C1(C)C (stereo not shown) [IV-1274, N-{6,6-Dimethyl-5-[2-(pyridin-3-yloxy)propanoyl]-1,4,5,6-tetrahydropyrrolo[3,4-c]pyrazol-3-yl}-1-(trimethylsilyl)cyclobutanecarboxamide] | ≤ 0.5 µM | ≤ 0.05 µM | –
3 | CC1(C)c2[nH]nc(NC(=O)C3([Si](C)(C)C)CCC3)c2CN1C(=O)NC[C@H](O)c1ccccc1 [IV-786, (R)—N-(2-Hydroxy-2-phenylethyl)-6,6-dimethyl-3-[1-(trimethylsilyl)cyclobutanecarboxamido]-4,6-dihydropyrrolo[3,4-c]pyrazole-5(1H)-carboxamide] | ≤ 0.5 µM | ≤ 0.05 µM | –
4 | CC1(C)c2[nH]nc(NC(=O)C3([Si](C)(C)C)CCC3)c2CN1C(=O)N[C@H](CO)c1ccccc1Cl [IV-959, (S)—N-[1-(2-Chlorophenyl)-2-hydroxyethyl]-6,6-dimethyl-3-[1-(trimethylsilyl)cyclobutanecarboxamido]-4,6-dihydropyrrolo[3,4-c]pyrazole-5(1H)-carboxamide] | ≤ 0.5 µM | ≤ 0.05 µM | –
5 | COC(C)C(=O)N1Cc2c(NC(=O)C3([Si](C)(C)C)CCC3)n[nH]c2C1(C)C (stereo not shown) [IV-1241, N-[5-(2-Methoxypropanoyl)-6,6-dimethyl-1,4,5,6-tetrahydropyrrolo[3,4-c]pyrazol-3-yl]-1-(trimethylsilyl)cyclobutanecarboxamide] | ≤ 0.5 µM | ≤ 0.05 µM | –
6 | CC1(C)c2[nH]nc(NC(=O)C3([Si](C)(C)C)CCC3)c2CN1C(=O)[C@@H](CO)c1ccccc1 [IV-1215, (R)—N-[5-(3-Hydroxy-2-phenylpropanoyl)-6,6-dimethyl-1,4,5,6-tetrahydropyrrolo[3,4-c]pyrazol-3-yl]-1-(trimethylsilyl)cyclobutanecarboxamide] | ≤ 0.5 µM | ≤ 0.05 µM | –
7 | CC(C)[C@@H](CC(C)(C)O)NC(=O)N1Cc2c(NC(=O)C3([Si](C)(C)C)CCC3)n[nH]c2C1(C)C [IV-815, (R)—N-(5-Hydroxy-2,5-dimethylhexan-3-yl)-6,6-dimethyl-3-[1-(trimethylsilyl)cyclobutanecarboxamido]-4,6-dihydropyrrolo[3,4-c]pyrazole-5(1H)-carboxamide] | ≤ 0.5 µM | ≤ 0.05 µM | –
8 | COCC(C(=O)N1Cc2c(NC(=O)C3([Si](C)(C)C)CCC3)n[nH]c2C1(C)C)c1ccccc1 (stereo not shown) [IV-634, N-[5-(3-Methoxy-2-phenylpropanoyl)-6,6-dimethyl-1,4,5,6-tetrahydropyrrolo[3,4-c]pyrazol-3-yl]-1-(trimethylsilyl)cyclobutanecarboxamide] | ≤ 0.5 µM | ≤ 0.05 µM | –
9 | CC1(C)c2[nH]nc(NC(=O)C3([Si](C)(C)C)CCC3)c2CN1C(=O)NC[C@@H](O)c1ccccc1 [IV-787, (S)—N-(2-Hydroxy-2-phenylethyl)-6,6-dimethyl-3-[1-(trimethylsilyl)cyclobutanecarboxamido]-4,6-dihydropyrrolo[3,4-c]pyrazole-5(1H)-carboxamide] | ≤ 0.5 µM | ≤ 0.05 µM | –
10 | CC(C)C(O)CNC(=O)N1Cc2c(NC(=O)C3([Si](C)(C)C)CCC3)n[nH]c2C1(C)C (stereo not shown) [IV-446, N-(2-Hydroxy-3-methylbutyl)-6,6-dimethyl-3-[1-(trimethylsilyl)cyclobutanecarboxamido]-4,6-dihydropyrrolo[3,4-c]pyrazole-5(1H)-carboxamide] | ≤ 0.5 µM | ≤ 0.05 µM | –
11 | CC(C)(CO)C(NC(=O)N1Cc2c(NC(=O)C3([Si](C)(C)C)CCC3)n[nH]c2C1(C)C)c1ccccc1F (stereo not shown) [IV-890, N-[1-(2-Fluorophenyl)-3-hydroxy-2,2-dimethylpropyl]-6,6-dimethyl-3-[1-(trimethylsilyl)cyclobutanecarboxamido]-4,6-dihydropyrrolo[3,4-c]pyrazole-5(1H)-carboxamide] | ≤ 0.5 µM | – | ≥ 1 µM
12 | COCC(Oc1ccccc1)C(=O)N1Cc2c(NC(=O)C3([Si](C)(C)C)CCC3)n[nH]c2C1(C)C (stereo not shown) [IV-1348, N-[5-(3-Methoxy-2-phenoxypropanoyl)-6,6-dimethyl-1,4,5,6-tetrahydropyrrolo[3,4-c]pyrazol-3-yl]-1-(trimethylsilyl)cyclobutanecarboxamide] | ≤ 0.5 µM | ≤ 0.05 µM | –
13 | C[C@@H](Oc1ccccc1)C(=O)N1Cc2c(NC(=O)C3([Si](C)(C)C)CC3)n[nH]c2C1(C)C [III-1140, (R)—N-[6,6-Dimethyl-5-(2-phenoxypropanoyl)-1,4,5,6-tetrahydropyrrolo[3,4-c]pyrazol-3-yl]-1-(trimethylsilyl)cyclopropanecarboxamide] | ≤ 0.5 µM | ≤ 0.05 µM | –
14 | CO[C@H](C(=O)N1Cc2c(NC(=O)C3([Si](C)(C)C)CCC3)n[nH]c2C1(C)C)c1ccccc1 [IV-1176, (S)—N-[5-(2-Methoxy-2-phenylacetyl)-6,6-dimethyl-1,4,5,6-tetrahydropyrrolo[3,4-c]pyrazol-3-yl]-1-(trimethylsilyl)cyclobutanecarboxamide] | ≤ 0.5 µM | ≤ 0.05 µM | –

From patent US10131679B2, “Substituted dihydropyrrolopyrazole compound” (UBE INDUSTRIES, LTD., priority 2014, dated 2018)
